Earlier results in patent US20240207235A1, “NANOEMULSION FORMULATION FOR TREATING DISBETES MELLITUS (DM)” (KING FAISAL UNIVERSITY, priority 2022, published 2024).

- solubility: low solubility
Compound: CCc1ccc(CCOc2ccc(CC3SC(=O)NC3=O)cc2)nc1 (stereo not shown) [PGZ, Pioglitazone]
